Reference: publication PMC11079024, “Identification of a family of species-selective complex I inhibitors as potential anthelmintics” (Nature Communications, 2024)
Values joined by “and” are separate entries in the source; they are usually repeats but may differ in a detail not shown here. Equal entries are not always repeated. Where two headings read alike, the source gives them in different places.

How the values were obtained:
[1] = test system: L1 wild-type C. elegans; assay: whole plant or invertebrate; details: Caenorhabditis elegans, 15 h
[2] = test system: C. elegans; assay: C. elegans chemical screens of RIKEN NPD libraries at 50 μM (hit identification in KCN survival and development/viability assays); type: cell-based, Caenorhabditis elegans; details: screened at 50 μM in triplicate; […]; KCN = KCN survival assay, Dev. & Viability = development/viability assay
[3] = test system: L1 wild-type C. elegans; assay: 15-hour motility assay with drug alone (no KCN); type: cell-based, Caenorhabditis elegans; details: without KCN, 15-hour; for Value relative to DMSO control, drug alone (without KCN), Mean: mean of replicates; for Value relative to DMSO control, drug alone (without KCN): single replicates
[4] = test system: L1 wild-type C. elegans; details: drug + KCN, 15-hour; for KCN survival assay value relative to DMSO control, Mean: mean of replicates; for KCN survival assay value relative to DMSO control: single replicates
[5] = read-out: C. elegans KCN survival assay LC50

Structure (SMILES)	LC50 [1, 5]	Value relative to DMSO control, drug alone (without KCN), Mean ([3]; 0.025 µM)	Value relative to DMSO control, drug alone (without KCN) ([3]; 0.025 µM)	Value relative to DMSO control, drug alone (without KCN), Mean ([3]; 0.05 µM)	Value relative to DMSO control, drug alone (without KCN) ([3]; 0.05 µM)	Value relative to DMSO control, drug alone (without KCN), Mean ([3]; 0.1 µM)	Value relative to DMSO control, drug alone (without KCN) ([3]; 0.1 µM)	Value relative to DMSO control, drug alone (without KCN), Mean ([3]; 0.2 µM)	Value relative to DMSO control, drug alone (without KCN) ([3]; 0.2 µM)	Value relative to DMSO control, drug alone (without KCN), Mean ([3]; 0.4 µM)	Value relative to DMSO control, drug alone (without KCN) ([3]; 0.4 µM)	Value relative to DMSO control, drug alone (without KCN), Mean ([3]; 0.8 µM)	Value relative to DMSO control, drug alone (without KCN) ([3]; 0.8 µM)	Value relative to DMSO control, drug alone (without KCN), Mean ([3]; 3.1 µM)	Value relative to DMSO control, drug alone (without KCN) ([3]; 3.1 µM)	Value relative to DMSO control, drug alone (without KCN), Mean ([3]; 6.3 µM)	Value relative to DMSO control, drug alone (without KCN) ([3]; 6.3 µM)	Value relative to DMSO control, drug alone (without KCN), Mean ([3]; 12.5 µM)	Value relative to DMSO control, drug alone (without KCN) ([3]; 12.5 µM)	Value relative to DMSO control, drug alone (without KCN), Mean ([3]; 25 µM)	further results
CCCC/C=C\C/C=C\CCCCCCCCc1cccc(O)c1C(=O)O [6-heptadeca-9Z,12Z-dienyl salicylic acid]																					LC50 ([1]; read-out: C. elegans KCN Survival Assay LC50): 3970 nM; Hit Type [2]: KCN
Cc1cc(C(C#N)c2ccc(Cl)cc2)c(Cl)cc1NC(=O)c1cc(I)cc(I)c1O (stereo not drawn) [Closantel]	332 nM	1.096	1.270 and 1.000 and 1.019	0.995	1.190 and 0.812 and 0.983	0.999	1.131 and 0.827 and 1.040	1.003	1.030 and 1.024 and 0.957	0.958	1.006 and 0.910 and 0.957	1.081	1.194 and 1.047 and 1.003	0.969	1.240 and 0.805 and 0.863	1.048	1.218 and 0.919 and 1.007	1.059	1.241 and 0.872 and 1.065	0.703	Value relative to DMSO control, drug alone (without KCN) ([3]; 25 µM): 0.678 and 0.775 and 0.655; KCN survival assay value relative to DMSO control, Mean ([4]; 0.025 µM): 0.976; KCN survival assay value relative to DMSO control ([4]; 0.025 µM): 0.959 and 0.928 and 1.042; KCN survival assay value relative to DMSO control, Mean ([4]; 0.05 µM): 0.987; KCN survival assay value relative to DMSO control ([4]; 0.05 µM): 1.068 and 0.937 and 0.955; KCN survival assay value relative to DMSO control, Mean ([4]; 0.1 µM): 0.937; KCN survival assay value relative to DMSO control ([4]; 0.1 µM): 0.967 and 0.903 and 0.941; KCN survival assay value relative to DMSO control, Mean ([4]; 0.2 µM): 0.886; KCN survival assay value relative to DMSO control ([4]; 0.2 µM): 1.054 and 0.849 and 0.755; KCN survival assay value relative to DMSO control, Mean ([4]; 0.4 µM): 0.363; KCN survival assay value relative to DMSO control ([4]; 0.4 µM): 0.480 and 0.444 and 0.164; KCN survival assay value relative to DMSO control, Mean ([4]; 0.8 µM): 0.018; KCN survival assay value relative to DMSO control, Mean ([4]; 3.1 µM): 0.000; KCN survival assay value relative to DMSO control, Mean ([4]; 6.3 µM): 0.000; KCN survival assay value relative to DMSO control ([4]; 6.3 µM): 0.000; KCN survival assay value relative to DMSO control, Mean ([4]; 12.5 µM): 0.0065; KCN survival assay value relative to DMSO control, Mean ([4]; 25 µM): 0.0037
O=C(Nc1cc(Cl)cc(Cl)c1O)c1c(O)c(Cl)cc(Cl)c1Cl [Oxyclozanide]	158 nM	0.970	1.075 and 0.779 and 1.056	1.040	0.978 and 1.142 and 1.000	1.014	1.026 and 1.091 and 0.926	0.862	0.850 and 0.960 and 0.775	0.811	0.730 and 0.844 and 0.861	0.863	0.803 and 1.008 and 0.777	0.927	0.899 and 1.068 and 0.814	0.856	0.946 and 0.940 and 0.683	0.986	0.842 and 1.234 and 0.881	0.843	Value relative to DMSO control, drug alone (without KCN) ([3]; 25 µM): 0.680 and 1.053 and 0.797; KCN survival assay value relative to DMSO control, Mean ([4]; 0.025 µM): 1.036; KCN survival assay value relative to DMSO control ([4]; 0.025 µM): 1.103 and 1.007 and 0.999; KCN survival assay value relative to DMSO control, Mean ([4]; 0.05 µM): 1.033; KCN survival assay value relative to DMSO control ([4]; 0.05 µM): 1.103 and 1.025 and 0.972; KCN survival assay value relative to DMSO control, Mean ([4]; 0.1 µM): 0.765; KCN survival assay value relative to DMSO control ([4]; 0.1 µM): 0.944 and 0.659 and 0.693; KCN survival assay value relative to DMSO control, Mean ([4]; 0.2 µM): 0.371; KCN survival assay value relative to DMSO control ([4]; 0.2 µM): 0.478 and 0.398 and 0.238; KCN survival assay value relative to DMSO control, Mean ([4]; 0.4 µM): 0.077; KCN survival assay value relative to DMSO control, Mean ([4]; 0.8 µM): 0.012; KCN survival assay value relative to DMSO control, Mean ([4]; 3.1 µM): 0.000; KCN survival assay value relative to DMSO control ([4]; 3.1 µM): 0.000; KCN survival assay value relative to DMSO control, Mean ([4]; 6.3 µM): 0.000; KCN survival assay value relative to DMSO control ([4]; 6.3 µM): 0.000; KCN survival assay value relative to DMSO control, Mean ([4]; 12.5 µM): 0.0006; KCN survival assay value relative to DMSO control, Mean ([4]; 25 µM): 0.000; KCN survival assay value relative to DMSO control ([4]; 25 µM): 0.000
O=C(Nc1ccc(Oc2ccc(Cl)cc2)c(Cl)c1)c1cc(I)cc(I)c1O [Rafoxanide]	141 nM	1.251	1.299 and 1.275 and 1.179	1.063	1.000 and 1.187	0.952	0.779 and 1.140 and 0.937	0.871	0.876 and 1.068 and 0.668	0.805	0.814 and 0.980 and 0.622	0.942	0.867 and 0.978 and 0.981	0.954	1.089 and 0.794 and 0.978	1.113	1.082 and 1.203 and 1.055	1.298	1.422 and 1.293 and 1.177	1.108	Value relative to DMSO control, drug alone (without KCN) ([3]; 25 µM): 1.103 and 1.144 and 1.075; KCN survival assay value relative to DMSO control, Mean ([4]; 0.025 µM): 0.992; KCN survival assay value relative to DMSO control ([4]; 0.025 µM): 1.081 and 1.011 and 0.883; KCN survival assay value relative to DMSO control, Mean ([4]; 0.05 µM): 0.890; KCN survival assay value relative to DMSO control ([4]; 0.05 µM): 0.979 and 0.794 and 0.899; KCN survival assay value relative to DMSO control, Mean ([4]; 0.1 µM): 0.788; KCN survival assay value relative to DMSO control ([4]; 0.1 µM): 1.030 and 0.770 and 0.563; KCN survival assay value relative to DMSO control, Mean ([4]; 0.2 µM): 0.261; KCN survival assay value relative to DMSO control, Mean ([4]; 0.4 µM): 0.0026; KCN survival assay value relative to DMSO control, Mean ([4]; 0.8 µM): 0.0007; KCN survival assay value relative to DMSO control, Mean ([4]; 3.1 µM): 0.000; KCN survival assay value relative to DMSO control ([4]; 3.1 µM): 0.000; KCN survival assay value relative to DMSO control, Mean ([4]; 6.3 µM): 0.0019; KCN survival assay value relative to DMSO control, Mean ([4]; 12.5 µM): 0.000; KCN survival assay value relative to DMSO control ([4]; 12.5 µM): 0.000; KCN survival assay value relative to DMSO control, Mean ([4]; 25 µM): 0.000; KCN survival assay value relative to DMSO control ([4]; 25 µM): 0.000
